# Reference: patent US20260224678A1, “EXPEDITED NEOANTIGEN VACCINES” (priority 2023, published 2026)
# Test system: T cells
# Experiment: Elispot response after vaccination with neoepitope peptides
# Format: cell-based, human
# Details: subject with R132H mutation of IDH1 vaccinated multiple times with two 9 mer peptides and a 15 mer peptide carrying the motifs
# Description: As noted above, T cell exposed motif frequency is also a criterion for selection of vaccinal peptides from mutated passenger gene products. Table 10—(also replicated as FIG. 5) provides an example for a particular individual cancer-affected subject showing the selection of the most advantageous peptides based on frequency of occurrence in reference databases of pentamer counts and the subject's HLA alleles. When the pentamers in tumor specific T cell exposed motifs that expose a mutated amino acid are absent or low frequency in the human proteome, particular attention is paid to the frequency count in databases of exogenous proteins. In the table we show application of the representative gastrointestinal microbiome dataset. Application of this database should not be considered limiting and other reference sets likely to be indicative of prior epitope exposure may be applied. In this example the top two passenger mutations (in genes ARHGAP5 and ATIC) have T cell exposed motifs which are common. However, the lower two mutations (in CDC42 and CHD6) are poorly represented in the human and gastrointestinal microbiome reference datasets. Selected peptides for these two mutated proteins (margins boxed in FIG. 5) that best fulfil the criteria of frequency and also binding to this subject's known HLA alleles include SEQ ID NO.:s. 1891, 1897, 1898, 1914, 1915, 1916, 1921. In another embodiment a subject affected with a R132H mutation of IDH1 was vaccinated multiple times with two 9 mer peptides both exposing the mutant histidine. One peptide carried T cell exposed motif ~~~IGHHA~ (SEQ ID NO.: 1924) and the other carrying ~~~GHHAY~ SEQ ID NO.: 1925 and a 15 mer peptide comprising KP~I~GH SEQ ID NO.: 1927. A positive Elispot response was detected to SEQ ID NO.: 1924 and 1927 but not SEQ ID NO.: 1925.
# Methods of expansion of T cells and sequencing of the T cell receptors (TCR) therein are known to the art. […]
row,Substance,Elispot
1,1924 (IGHHA) [compound 1924],positive
2,1925 (GHHAY) [compound 1925],negative
3,1927 (KPIGH) [compound 1927],positive
